According to publication PMC9516332 (Frontiers in Oncology, 2022):
Like-named read-outs stand apart in the source and are kept apart here.

How the values were obtained:
[1] = system: 134 cancer cell lines; assay: Cell viability assay (ATPlite, 72 hours), IC50 on cancer cell line panel
[2] = biological target: panel of 255 wild-type kinases (Homo sapiens, UniProt Q9Y6M4); assay: Kinase panel profiling at 1 µmol/L (MSA or IMAP), percentage inhibition; type: biochemical; conditions: read-out: %-inhibition at 1 µmol/L, CK1γ3
[3] = biological target: panel of 255 wild-type kinases (Homo sapiens, UniProt P29317); assay: as above; type: biochemical; conditions: read-out: %-inhibition at 1 µmol/L, EPHA2
[4] = system: AP-1060 (ETV6-NTRK3); assay: Cell viability assay; conditions: read-out: IC50 in cell proliferation assay

CNC(=O)c1ccc(-c2cnc3ncc(Cc4ccc5ncccc5c4)n3n2)cc1F [capmatinib]
1.95 µM: IC50 ([1]; Homo sapiens, MV4-11, read-out: IC50 in cell proliferation assay)
0.023 µM: IC50 ([1]; Homo sapiens, U-87 MG, read-out: IC50 in cell proliferation assay)
-1%: inhibition at 1 µM [3]
7.37 µM: IC50 ([1]; Rh30, read-out: IC50 in cell proliferation assay)
9.7 µM: IC50 ([1]; Homo sapiens, SK-N-SH, read-out: IC50 in cell proliferation assay)
3.02 µM: IC50 ([1]; Homo sapiens, Rec1, read-out: IC50 in cell proliferation assay)
7.23 µM: IC50 ([1]; Homo sapiens, SW837, read-out: IC50 in cell proliferation assay)
0.000951 µM: IC50 ([1]; Homo sapiens, SNU-5, read-out: IC50 in cell proliferation assay)
30.8 µM: IC50 ([1]; Homo sapiens, MDA-MB-468, read-out: IC50 in cell proliferation assay)
> 31.6 µM: IC50 ([1]; Homo sapiens, MDA-MB-231, read-out: IC50 in cell proliferation assay) | IC50 ([1]; Homo sapiens, MDA-MB-453, read-out: IC50 in cell proliferation assay) | IC50 ([1]; Homo sapiens, MG-63, read-out: IC50 in cell proliferation assay) | IC50 ([1]; Homo sapiens, MIA PaCa-2, read-out: IC50 in cell proliferation assay) | IC50 ([1]; Homo sapiens, MOLT-4, read-out: IC50 in cell proliferation assay) | IC50 ([1]; Homo sapiens, MeWo, read-out: IC50 in cell proliferation assay) | IC50 ([1]; Homo sapiens, NCCIT, read-out: IC50 in cell proliferation assay) | IC50 ([1]; Homo sapiens, NCI-H82, read-out: IC50 in cell proliferation assay) | IC50 ([1]; Homo sapiens, NCI-H460, read-out: IC50 in cell proliferation assay) | IC50 ([1]; Homo sapiens, NCI-H661, read-out: IC50 in cell proliferation assay) | IC50 ([1]; Homo sapiens, NCI-H716, read-out: IC50 in cell proliferation assay) | IC50 ([1]; Homo sapiens, NCI-H1975, read-out: IC50 in cell proliferation assay) | IC50 ([1]; Homo sapiens, NCI-H2228, read-out: IC50 in cell proliferation assay) | IC50 ([1]; Homo sapiens, OVCAR-3, read-out: IC50 in cell proliferation assay) | IC50 ([1]; Homo sapiens, PFSK-1, read-out: IC50 in cell proliferation assay) | IC50 ([1]; Homo sapiens, RL95-2, read-out: IC50 in cell proliferation assay) | IC50 ([1]; Homo sapiens, RPMI-7951, read-out: IC50 in cell proliferation assay) | IC50 ([1]; Homo sapiens, RS4-11, read-out: IC50 in cell proliferation assay) | IC50 ([1]; Homo sapiens, SHP77, read-out: IC50 in cell proliferation assay) | IC50 ([1]; Homo sapiens, SK-BR-3, read-out: IC50 in cell proliferation assay) | IC50 ([1]; Homo sapiens, SK-N-AS, read-out: IC50 in cell proliferation assay) | IC50 ([1]; Homo sapiens, SK-N-FI, read-out: IC50 in cell proliferation assay) | IC50 ([1]; Homo sapiens, SK-N-MC, read-out: IC50 in cell proliferation assay) | IC50 ([1]; Homo sapiens, SNU-16, read-out: IC50 in cell proliferation assay) | IC50 ([1]; Homo sapiens, SNU-C2B, read-out: IC50 in cell proliferation assay) | IC50 ([1]; Homo sapiens, SU-DHL-1, read-out: IC50 in cell proliferation assay) | IC50 ([1]; Homo sapiens, SU-DHL-6, read-out: IC50 in cell proliferation assay) | IC50 ([1]; Homo sapiens, SUP-T1, read-out: IC50 in cell proliferation assay) | IC50 ([1]; Homo sapiens, SW48, read-out: IC50 in cell proliferation assay) | IC50 ([1]; Homo sapiens, SW480, read-out: IC50 in cell proliferation assay) | IC50 ([1]; Homo sapiens, SW626, read-out: IC50 in cell proliferation assay) | IC50 ([1]; Homo sapiens, SW780, read-out: IC50 in cell proliferation assay) | IC50 ([1]; Homo sapiens, SW872, read-out: IC50 in cell proliferation assay) | IC50 ([1]; Homo sapiens, SW900, read-out: IC50 in cell proliferation assay) | IC50 ([1]; Homo sapiens, SW948, read-out: IC50 in cell proliferation assay) | IC50 ([1]; Homo sapiens, SW982, read-out: IC50 in cell proliferation assay) | IC50 ([1]; Homo sapiens, SW-620, read-out: IC50 in cell proliferation assay) | IC50 ([1]; Homo sapiens, T98G, read-out: IC50 in cell proliferation assay) | IC50 ([1]; Homo sapiens, TCC-SUP, read-out: IC50 in cell proliferation assay) | IC50 ([1]; Homo sapiens, THP-1, read-out: IC50 in cell proliferation assay) | IC50 ([1]; Homo sapiens, U2OS, read-out: IC50 in cell proliferation assay) | IC50 ([1]; Homo sapiens, U-118-MG, read-out: IC50 in cell proliferation assay) | IC50 ([1]; Homo sapiens, UMUC3, read-out: IC50 in cell proliferation assay) | IC50 ([1]; Hs766T, read-out: IC50 in cell proliferation assay) | IC50 ([1]; L-82, read-out: IC50 in cell proliferation assay) | IC50 [4]
0.004 µM: IC50 ([1]; Homo sapiens, MKN-45, read-out: IC50 in cell proliferation assay)
6.01 µM: IC50 ([1]; Homo sapiens, MOLM-13, read-out: IC50 in cell proliferation assay)
9.45 µM: IC50 ([1]; Homo sapiens, NCI-H1650, read-out: IC50 in cell proliferation assay)
-1.65%: inhibition at 1 µM [2]
